The assay concerns the target T1, human T-type channel alpha-1H (CaV 3.2) (Homo sapiens, UniProt O95180).
T1 construct: expressed in transfected cells; host or cells: HEK 293
Put plainly: Ca2+ Influx Assay (cell-based fluorescent, FDSS). Conditions: HEK 293 cells expressing human CaV 3.2. As to the method: Inhibition of T-type calcium channel activity was determined by cell-based flu-orescent Ca^2+ influx assay, in which potassium ionophore was added to decrease resting membrane potential and extra-cellular high-K^+ stimulation was used to modulate the membrane potential of the cell. The changes in fluorescent signal were monitored by the cell imaging technology by Hamamatsu Photonics's Functional Drug Screening System (FDSS).
HEK 293 cells expressing the human T-type channel alpha-1H (CaV 3.2) were maintained in DMEM supplemented with 10% heat-inactivated FBS, 100 units/ml Penicillin, 100 microg/ml Streptomycin, 150 microg/ml Zeocin, 300 microg/ml Geneticin. The cells were grown in a 5% CO2 humidified incubator at 37° C.
• 1. Cells were harvested and seeded in a poly-D-lysine coated black-sided clear bottom 384-well plate at density of 10,000 cells/well at 24 hours prior to assay. • 2. Incubate at 37° C. in 5% CO2. Day Two: • 1. Wash each well with assay buffer (see below) and leave 20 RI using plate washer, ELx-405 Select CW (BIO-TEK). • 2. Add 20 μL of assay buffer containing 6 μM Fluo-4-AM (Molecular Probes) and 0.005% Pluronic F-127 to each well. • 3. Incubate the plate at 37° C. for 1 hour. • 4. Wash each well assay buffer (see below) and leave 20 μl using plate washer, ELx-405 Select CW (BIO-TEK). • 5. Add 10 μl of compound solution into each well by FDSS6000 and leave the plate for 4.5 min, and then add 10 μl of potassium ionophore solution. • 6. Add 20 μl of high-K^+ depolarizing solution (see below) and monitor the change of fluorescent signal.
The IC50 values for compounds of the present invention were determined from 7-point dose-response studies. Curves were generated using the average of duplicate wells for each data point. Finally, the IC50 values are calculated with the best-fit dose curve determined by XLfit.

T1 sequence (O95180 whole entry): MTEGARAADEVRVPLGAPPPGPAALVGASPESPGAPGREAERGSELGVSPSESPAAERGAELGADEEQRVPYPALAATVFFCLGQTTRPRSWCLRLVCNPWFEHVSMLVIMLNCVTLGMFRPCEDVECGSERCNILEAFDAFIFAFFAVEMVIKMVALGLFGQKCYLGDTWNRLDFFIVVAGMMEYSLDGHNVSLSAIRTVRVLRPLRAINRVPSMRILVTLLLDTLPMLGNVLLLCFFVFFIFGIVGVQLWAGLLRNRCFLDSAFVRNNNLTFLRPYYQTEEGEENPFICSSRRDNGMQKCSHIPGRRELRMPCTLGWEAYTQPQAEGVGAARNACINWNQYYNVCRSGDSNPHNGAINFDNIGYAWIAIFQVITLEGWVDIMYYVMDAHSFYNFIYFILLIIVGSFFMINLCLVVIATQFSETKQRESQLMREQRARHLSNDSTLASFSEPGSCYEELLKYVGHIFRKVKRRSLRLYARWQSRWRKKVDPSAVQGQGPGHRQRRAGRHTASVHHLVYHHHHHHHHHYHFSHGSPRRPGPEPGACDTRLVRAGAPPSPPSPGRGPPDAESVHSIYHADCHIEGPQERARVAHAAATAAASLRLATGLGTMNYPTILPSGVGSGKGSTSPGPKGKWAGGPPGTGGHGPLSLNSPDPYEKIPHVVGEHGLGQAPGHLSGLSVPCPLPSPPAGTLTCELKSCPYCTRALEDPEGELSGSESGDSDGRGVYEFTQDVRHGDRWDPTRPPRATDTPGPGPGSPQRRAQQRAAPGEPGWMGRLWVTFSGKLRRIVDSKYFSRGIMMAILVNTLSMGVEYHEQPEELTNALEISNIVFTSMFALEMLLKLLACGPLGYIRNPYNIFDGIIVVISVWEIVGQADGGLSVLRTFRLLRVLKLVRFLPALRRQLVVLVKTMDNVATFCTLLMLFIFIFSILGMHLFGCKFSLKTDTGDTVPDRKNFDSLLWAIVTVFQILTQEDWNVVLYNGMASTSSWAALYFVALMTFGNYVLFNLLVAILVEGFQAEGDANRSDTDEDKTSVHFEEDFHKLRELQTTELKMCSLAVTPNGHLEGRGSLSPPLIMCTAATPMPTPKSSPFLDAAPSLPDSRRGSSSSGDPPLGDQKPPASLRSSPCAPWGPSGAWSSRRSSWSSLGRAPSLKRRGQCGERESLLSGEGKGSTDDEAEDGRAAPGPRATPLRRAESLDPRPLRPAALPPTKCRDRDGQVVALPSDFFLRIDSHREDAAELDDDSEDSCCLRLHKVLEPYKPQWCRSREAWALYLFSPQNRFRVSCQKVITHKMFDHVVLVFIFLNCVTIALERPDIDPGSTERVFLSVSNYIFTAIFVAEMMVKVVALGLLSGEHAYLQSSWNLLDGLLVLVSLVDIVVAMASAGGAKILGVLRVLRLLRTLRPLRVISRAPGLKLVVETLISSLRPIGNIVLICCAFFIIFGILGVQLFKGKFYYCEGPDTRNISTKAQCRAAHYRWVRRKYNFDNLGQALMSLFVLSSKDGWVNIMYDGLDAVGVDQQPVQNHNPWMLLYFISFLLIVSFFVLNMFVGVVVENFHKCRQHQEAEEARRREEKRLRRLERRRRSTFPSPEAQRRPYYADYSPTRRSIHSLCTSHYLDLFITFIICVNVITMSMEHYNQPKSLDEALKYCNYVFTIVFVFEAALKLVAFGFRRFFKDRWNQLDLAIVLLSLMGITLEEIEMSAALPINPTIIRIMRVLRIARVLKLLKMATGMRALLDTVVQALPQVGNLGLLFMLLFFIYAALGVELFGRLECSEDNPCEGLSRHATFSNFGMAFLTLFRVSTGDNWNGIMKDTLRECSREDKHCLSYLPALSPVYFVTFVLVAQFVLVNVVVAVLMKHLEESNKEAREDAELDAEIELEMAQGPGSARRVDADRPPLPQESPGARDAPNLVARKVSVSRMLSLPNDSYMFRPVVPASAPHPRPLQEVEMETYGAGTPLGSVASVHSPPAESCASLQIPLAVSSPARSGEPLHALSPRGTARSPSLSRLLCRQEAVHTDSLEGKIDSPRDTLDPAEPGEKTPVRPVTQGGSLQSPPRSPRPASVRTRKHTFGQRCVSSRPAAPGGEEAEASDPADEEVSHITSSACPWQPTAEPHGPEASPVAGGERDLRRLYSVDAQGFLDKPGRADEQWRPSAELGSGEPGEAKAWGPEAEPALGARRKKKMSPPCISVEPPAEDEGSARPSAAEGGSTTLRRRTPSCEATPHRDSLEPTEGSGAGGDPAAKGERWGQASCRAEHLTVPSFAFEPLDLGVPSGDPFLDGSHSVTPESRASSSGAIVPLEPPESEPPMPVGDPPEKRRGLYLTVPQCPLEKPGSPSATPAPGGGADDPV

For the molecule `C[C@@H](NC(=O)[C@H]1C[C@@H]1c1cc(F)ccc1F)c1ccc(OCC(F)(F)F)cn1` (relative stereo) [Example 327, (1S*,2S*)-2-(2,5-difluorophenyl)-N-((R)-1-(5-(2,2,2-trifluoroethoxy)pyridin-2-yl)ethyl)cyclopropanecarboxamide], the IC50 is no more than 0.3 µM.
For `C[C@@H](NC(=O)C1CC1c1cn(C)c2ccccc12)c1ccc(OCC(F)(F)F)cn1` (stereo in doubt) [Example 106, trans-2-(1-methyl-1H-indol-3-yl)-N-((R)-1-(5-(2,2,2-trifluoroethoxy)pyridin-2-yl)ethyl)cyclopropanecarboxamide], the IC50 is no more than 0.3 µM.
In turn, `C[C@@H](NC(=O)C1CC1c1c[nH]c2c(F)cccc12)c1ccc(OCC(F)(F)F)cn1` (stereo in doubt) [Example 108, trans-2-(7-fluoro-1H-indol-3-yl)-N-((R)-1-(5-(2,2,2-trifluoroethoxy)pyridin-2-yl)ethyl)cyclopropanecarboxamide] returned an IC50 of no more than 0.3 µM.
The value for `C[C@@H](NC(=O)C1CC1c1c[nH]c2ccc(F)cc12)c1ccc(OCC(F)(F)F)cn1` (stereo in doubt) [Example 110, trans-2-(5-fluoro-1H-indol-3-yl)-N-((R)-1-(5-(2,2,2-trifluoroethoxy)pyridin-2-yl)ethyl)cyclopropanecarboxamide] was no more than 0.3 µM.
The value for `C[C@@H](NC(=O)C1CC1c1c[nH]c2ccc(C#N)cc12)c1ccc(OCC(F)(F)F)cn1` (stereo in doubt) [Example 111, trans-2-(5-cyano-1H-indol-3-yl)-N-((R)-1-(5-(2,2,2-trifluoroethoxy)pyridin-2-yl)ethyl)cyclopropanecarboxamide] was no more than 0.3 µM; that for `C[C@@H](NC(=O)C1CC1c1cc2ccccc2[nH]1)c1ccc(OCC(F)(F)F)cn1` (stereo in doubt) [Example 124, trans-2-(1H-indol-2-yl)-N-((R)-1-(5-(2,2,2-trifluoroethoxy)pyridin-2-yl)ethyl)cyclopropanecarboxamide] was no more than 0.3 µM.
Molecule `C[C@@H](NC(=O)C1CC1c1cc2cc(F)ccc2[nH]1)c1ccc(OCC(F)(F)F)cn1` (stereo in doubt) [Example 125, trans-2-(5-fluoro-1H-indol-2-yl)-N-((R)-1-(5-(2,2,2-trifluoroethoxy)pyridin-2-yl)ethyl)cyclopropanecarboxamide] yielded an IC50 of no more than 0.3 µM.
Regarding `C[C@@H](NC(=O)C1CC1c1ccc2cc[nH]c2c1)c1ccc(OCC(F)(F)F)nc1` (stereo in doubt) [Example 147, trans-2-(1H-indol-6-yl)-N-((R)-1-(6-(2,2,2-trifluoroethoxy)pyridin-3-yl)ethyl)cyclopropanecarboxamide], the IC50 is no more than 0.3 µM.
Regarding `C[C@@H](NC(=O)C1CC1c1ccc2ccn(C)c2c1)c1ccc(OCC(F)(F)F)cn1` (stereo in doubt) [Example 167, trans-2-(1-methyl-1H-indol-6-yl)-N-((R)-1-(5-(2,2,2-trifluoroethoxy)pyridin-2-yl)ethyl)cyclopropanecarboxamide], the IC50 is no more than 0.3 µM.
For `C[C@@H](NC(=O)C1CC1c1c[nH]c2cc(F)ccc12)c1ccc(OCC(F)(F)F)cn1` (stereo in doubt) [Example 168, trans-2-(6-fluoro-1H-indol-3-yl)-N-((R)-1-(5-(2,2,2-trifluoroethoxy)pyridin-2-yl)ethyl)cyclopropanecarboxamide] the value was no more than 0.3 µM.
`C[C@@H](NC(=O)C1CC1COc1ccc(Cl)cc1)c1ccc(OCC(F)(F)F)cn1` (stereo in doubt) [Example 169, trans-2-((4-chlorophenoxy)methyl)-N-((R)-1-(5-(2,2,2-trifluoroethoxy)pyridin-2-yl)ethyl)cyclopropanecarboxamide] showed an IC50 of no more than 0.3 µM.
`C[C@@H](NC(=O)C1CC1c1cc2cc(F)ccc2[nH]1)c1cnc(OCC(F)(F)F)cn1` (stereo in doubt) [Example 171, trans-2-(5-fluoro-1H-indol-2-yl)-N-((R)-1-(5-(2,2,2-trifluoroethoxy)pyrazin-2-yl)ethyl)cyclopropanecarboxamide] registered an IC50 of no more than 0.3 µM.

These data come from US9101616B2, “Aryl substituted carboxamide derivatives as calcium or sodium channel blockers” (RaQualia Pharma Inc., priority 2009, dated 2015).
